# A melting point compilation (Tetko et al.; mined from patent text by program, amines drawn as free bases though some values may be those of a salt)
row,Structure (SMILES),melting point [°C]
1,COc1ccc(C2(C(=O)Oc3ccc(C(=O)NO)cc3)CCCCC2)cc1,127 to 129
2,Cn1c(SCc2ccccc2)nc2cnc3ccccc3c21,160 to 163
3,CC(C)c1ccc(NC(=O)C2CCCc3c(OCc4ccccc4)cccc32)cn1 (stereo not drawn),157
4,CCOC(=O)C(CCN1CCN(c2ncc(F)cn2)CC1)C(=O)c1ccc(F)cc1 (stereo not drawn),95 to 96
5,CC(C)N1CCC(C2c3ccccc3C=Cc3ccccc32)CC1,124 to 126
6,CCn1c(=O)c2[nH]c(/C=C/c3cccc(F)c3)nc2n(CC)c1=O,> 270
7,Cc1nc(-n2cc(C(F)(F)F)ccc2=O)sc1C(=O)NCc1ccccc1,148 to 149
8,Clc1cccc(Nc2nnc(-c3ccc4nonc4c3)s2)c1Cl,229 to 231
9,O=C(OCOCOC(=O)c1c(F)cccc1F)c1c(F)cccc1F,52 to 53
10,CN(C)C1CCN(C(=O)c2ccc(-c3[nH]nc4c3C(=O)c3c(NC(=O)NN5CCOCC5)cccc3-4)s2)CC1,185 to 186
11,CC(C)N(O)C(=O)C=Cc1ccc2ccccc2c1,184 to 185
12,CC1CC(C(=O)O)NC1=O (stereo not drawn),169 to 170
13,Cc1nc2c3c(c(C(=O)N4CCC4)cc2n1C)CCC1(Cc2ccccc2C1)N3,222 to 223
14,CN(c1cccc2cc(-c3ncc(CS(C)(=O)=O)s3)[nH]c12)S(=O)(=O)c1cccs1,242 to 243
15,CCCCOc1ccc(CNC(=O)c2ccccc2[N+](=O)[O-])cc1,101 to 102
16,O=C(Nc1cccc2c1C1CCCCN1C2=O)Nc1nc(Cl)c(Cl)c(Cl)c1Cl (stereo not drawn),246
17,C=C(C)C(=O)NCC(OC)OC,30 to 32
18,CN1C(=O)CC[C@]2(C)c3ccc(-c4cccc(C=O)c4)cc3CC[C@@H]12,163
19,Nc1ccn2nc(N3CCCC3)nc2c1,221 to 225
20,Cc1ccc(-c2nc(NCCN3CCOCC3)cc(Sc3ccc(Cl)cc3)n2)cc1,141 to 142
21,O=S1(=O)NCN(C2CCCCCC2)c2cc(Cl)ccc21,149 to 151
22,CCOC(=O)c1nc2cc(NC(=O)OC(C)(C)C)ccn2n1,220 to 222
23,N#Cc1ccsc1N=Cc1cccs1,58 to 60
24,O=C(Nc1ccc2c(c1)nc1n2CCC1)c1cc2nc(C(F)(F)F)ccc2n1Cc1ccncc1,130 to 131
25,Cc1cncn1-c1cc(NC(=O)OC(C)(C)C)cc(C(F)(F)F)c1,169 to 171

row,Structure (SMILES),melting point [°C]
1,COC(=O)c1cc(-c2ccccc2)c(=O)n2c1-c1sc(Br)cc1CC2,170 to 171
2,Clc1cc2nc(NCCCN3CCOCC3)c(-c3ccccn3)nc2cc1Cl,119 to 121
3,C[C@@H](O)CN1CC(c2cccc(C(F)(F)F)c2)C1,81 to 82
4,CCc1nc(C)cn1CO,83.1 to 86.3
5,CCCCn1c(=O)cnn(-c2ccc(N3CCN(c4ccc(O)cc4)CC3)cc2)c1=O,202
6,O=CNCCOc1cccc2c1c1ccccc1n2Cc1ccccc1,161 to 162
7,Cc1c(C)c(C(CO)c2ccc(C(C)C)cc2)c(O)c(C)c1Br (stereo not drawn),96 to 97
8,NCC1Cc2cccc(-c3ccccc3C(F)(F)F)c2O1 (stereo not drawn),109 to 111
9,Cc1nnc2n1-c1ccc(Cl)cc1C(=S)NC2,298 to 303
10,OCCCC1(c2ccccc2)OCCO1,39 to 42
11,Cc1c(OCC(F)(F)F)ccnc1CSc1nc2cc(N3CCN(C)CC3)c(F)cc2[nH]1,109 to 110
12,O/N=C(\Sc1ccccc1)C(F)(F)F,64 to 66
13,CC1(C)Cc2c(c(N3CCCCC3)nc3sc4c(NCCN5CCOCC5)ncnc4c23)CO1,158
14,CC(=O)NCCOC(=O)C1CCn2c1cc(C)c2C(=O)c1ccc(Cl)n1C (stereo not drawn),156 to 157
15,CNC(=O)c1ccc(C=CC(=O)NCC(=O)N(C)c2ccc(Cl)c(COc3cccc4ccc(C)nc34)c2)cc1,221 to 228
16,COc1ccc(CCC(N[C@@H](C)C(=O)N(CC(=O)O)C2Cc3ccccc3C2)C(=O)O)cc1OC (stereo partly drawn),160 to 165
17,O=C(O)CN1C(=O)C(=Cc2c[nH]c3ccc(Cl)cc23)SC1=S,278 to 282
18,Fc1cc(F)cc(CN2CCN(c3cc(-c4ccccc4)c(C(F)(F)F)nn3)CC2)c1,139
19,CCCc1c2c(cc3[nH]c(=O)c(=O)oc13)CCCC2,175 to 180
20,Cc1ncc(C(=O)NCc2cc(C(F)(F)F)cc(C(F)(F)F)c2)c(-c2ccccc2)n1,188 to 190
21,O=C(O)CCc1cn(Cc2ccc(OCc3coc(-c4ccccc4)n3)cc2)nc1-c1cccs1,145 to 146
22,CC(C)(C)OC(=O)N(C(=N)NS(=O)(=O)C(F)(F)F)C(=O)OC(C)(C)C,114 to 115
23,CCCCOc1ccc(S(=O)(=O)C2(C(=O)O)CCN(Cc3ccc(F)cc3)CC2)cc1,112
24,Nc1cc(Cl)nc(Cl)c1N,186 to 188
25,CN1C(=O)CCc2cc(S(=O)(=O)Cl)ccc21,130

row,Structure (SMILES),melting point [°C]
1,O=C(O)c1cccc(Oc2cccc(-c3nn(Cc4ccc(C(F)(F)P(=O)(O)O)c(F)c4)c(=Nc4ccc(Cl)c(Cl)c4)s3)c2)c1,153 to 156
2,CN(Cc1ccccc1)c1nc(N2CCOCC2)nc(-n2c(C(F)F)nc3ccccc32)n1,147 to 150
3,CCCc1c(-c2cc(=O)c3c(O)cc(OCC(=O)OCC)cc3o2)ccc(OC)c1O,138
4,Nc1ncc2cc(-c3c(Br)cccc3Br)c(N)nc2n1,284 to 289
5,COC(=O)c1c(N)cc(Cl)c(Cl)c1Cl,123 to 124
6,Fc1ccc(-c2ccc(C3OCCO3)cc2)cc1F,89 to 91
7,Cc1ccc2c(c1)c(Cl)c(C#N)c(=O)n2C,241
8,N#CCCCN1CCC(Nc2nc3ccccc3n2Cc2ccc(F)cc2)CC1,130
9,Cn1c(N=C=O)c(-c2ccccc2)c2cc([N+](=O)[O-])ccc21,> 250
10,Clc1ccc(-c2[nH]nc(N3CCNCC3)c2-c2ccncc2)cc1,264 to 265
11,CC(=O)N=c1sc(C)cn1CC(O)c1cccs1 (stereo not drawn),106 to 107
12,CC1(C)CCc2c(N3CCOCC3)nc3sc4c(NCc5ccncc5)ncnc4c3c2C1,240 to 241
13,CN1C(=O)N(CC(CS(=O)(=O)c2ccc(Oc3ccc(C(F)(F)F)cc3)cc2)N(O)C=O)C(=O)C1(C)C (stereo not drawn),141 to 143
14,COC(=O)c1cc(S(N)(=O)=O)c(F)cc1N,209 to 211
15,COc1ccc(-c2nnc(SC)nc2-c2ccc(OC)cc2)cc1,152 to 155
16,CCOC(=O)C(CC)Oc1ccc(-c2coc3cc4c(cc3c2=O)OCO4)cc1 (stereo not drawn),119 to 121
17,Cc1cccc(-c2nc3ccc(O)cc3n2Cc2ccccc2C(F)(F)F)c1,233
18,CCOC(=O)c1cn2c3c(cc(F)cc3c1=O)C(=O)CC2C (stereo not drawn),262 to 265
19,CCOC(=O)c1ncn2c1CN(Cc1ccc(OC)cc1OC)C(=O)c1ccccc1-2,136 to 138
20,CC(=O)C(C)(N=Nc1ccc(C(O)(C(F)(F)F)C(F)(F)F)cc1)C(N)=O (stereo not drawn),148 to 152
21,CN1CCC(N(C)c2nc(Nc3ccc(O)c(Cl)c3)nc(NC3CCCCCC3)n2)CC1,68
22,CC(C)=NOc1ccc([N+](=O)[O-])cc1,104 to 106
23,CCCCN(Cc1ccc(-c2ccccc2-c2nnn[nH]2)cc1)c1ncccc1CNC(C)=O,108 to 110
24,Cc1ccccc1-c1c(Cn2cnc3c(N)ncnc32)oc2ccc(Br)cc2c1=O,252 to 255
25,Cc1cccc2c1nc(COc1ccc(Cl)cc1)n2CCC(C)C(=O)N1CCCC1 (racemic),140 to 142

row,Structure (SMILES),melting point [°C]
1,O=C(Nc1ccccc1)Nc1cccc(Nc2ncnc3[nH]cc(C(=O)c4ccccc4)c23)c1,> 300
2,CC(C)(C)CNS(=O)(=O)c1cccc(NC(=O)c2cnn3c(C(F)F)cc(-c4ccc(C(F)(F)F)cc4)nc23)c1,208
3,CCC(O)C#Cc1ccc2c(=O)c(-c3ncc[nH]3)c(N)n(CC3CC3)c2n1 (stereo not drawn),252
4,Fc1ccc(Cn2c(NC3CCN(CCNc4nccs4)CC3)nc3cncnc32)cc1,165
5,CCCCCCCCCCCCCc1cc(C(=O)OCC)c[nH]1,59.5 to 60.5
6,N#Cc1ccc(Cc2nccc(-c3ccc(C#N)cc3)n2)cc1,155 to 156
7,COc1ccnc(CS(=O)c2nc3cc(Cl)c(Cl)cc3[nH]2)c1C (stereo not drawn),173
8,CC1(C#CC2(C(F)(F)F)c3cc(Cl)ccc3NC(=O)N2C2CC2)CC1 (stereo not drawn),218 to 220
9,O=C(CNC(=O)c1ccc(C(=O)C=C(c2cc(Cl)cc(C(F)(F)F)c2)C(F)(F)F)c2ccccc12)NCC(F)(F)F,174 to 177
10,CN(C(=O)COc1cc(-c2ccccc2)nc2ccccc12)C1CCC1,110
11,O=C(NCCO)C1(c2cccc3nn(Cc4cccc(C(F)(F)F)c4)cc23)C=CC=CN1 (stereo not drawn),50 to 51
12,CCc1cc(C#N)c(=O)[nH]c1COCc1ccccc1,141 to 143
13,COc1ccc(N2C(=O)N(c3cccc(C#N)c3)c3nc(Nc4cccc(CCOC(C)=O)c4)ncc3C2C)cc1 (stereo not drawn),170 to 172
14,CC(OS(=O)(=O)C(F)(F)F)=C(C(=O)OCc1ccccc1)N1C(=O)[C@@H](N2C(=O)c3ccccc3C2=O)[C@H]1COS(C)(=O)=O,51 to 55
15,C[C@H]1C(=O)Nc2ccc(Cl)cc2N1C(=O)OCCBr,133 to 136
16,CCc1cc(C#N)c(=O)[nH]c1C,237 to 240
17,Cc1ccc(C(CCN2CCCC2)c2ncc[nH]2)cc1 (stereo not drawn),125 to 127
18,O=C1OC(O)c2c(Cl)cccc21 (stereo not drawn),120 to 122
19,O=C(NOCC(O)CO)c1cc(Br)c(F)c(F)c1Nc1ccccc1F (stereo not drawn),144
20,CC(CC(F)(F)CC(C)(C)O)C1CCC2C3CC=C4CC(O)CCC4(C)C3CCC12C (stereo not drawn),148 to 149
21,O=C1C[C@H]2CN(C(=O)c3ccc(NC(=O)c4ccccc4-c4ccccc4)cc3)c3ccccc3C(=O)N2C1,159 to 169
22,O=C(CBr)Cc1c(F)cccc1Cl,47
23,CCN(CC)CCC1CCCCN1C(=O)N1c2ccccc2C(=O)Nc2cccnc21 (stereo not drawn),100
